Results: US9796709B2, “5-hydroxy-4-(trifluoromethyl)pyrazolopyridine derivative” (Daiichi Sankyo Company, Limited, priority 2013, dated 2017)

biological target: T1, LCAT (Homo sapiens, UniProt P04180); experiment: LCAT activity measurement (in vitro), [14C]cholesterol esterification with HDL3 fraction; type: biochemical; conditions: HDL3 fraction from plasma of a healthy person as enzyme source and acceptor; 37° C., approximately 16 hours; relative to sample without test drug; read-out: EC50 of LCAT activation
T1 construct: The obtained fraction was dialyzed against phosphate-buffered saline (pH 7.4) and used as an enzyme source and an acceptor for LCAT; from tissue; host or cells: HDL3 fraction (1.125 < specific gravity < 1.210 g/mL) of plasma from a healthy person
T1 sequence (P04180 25-440): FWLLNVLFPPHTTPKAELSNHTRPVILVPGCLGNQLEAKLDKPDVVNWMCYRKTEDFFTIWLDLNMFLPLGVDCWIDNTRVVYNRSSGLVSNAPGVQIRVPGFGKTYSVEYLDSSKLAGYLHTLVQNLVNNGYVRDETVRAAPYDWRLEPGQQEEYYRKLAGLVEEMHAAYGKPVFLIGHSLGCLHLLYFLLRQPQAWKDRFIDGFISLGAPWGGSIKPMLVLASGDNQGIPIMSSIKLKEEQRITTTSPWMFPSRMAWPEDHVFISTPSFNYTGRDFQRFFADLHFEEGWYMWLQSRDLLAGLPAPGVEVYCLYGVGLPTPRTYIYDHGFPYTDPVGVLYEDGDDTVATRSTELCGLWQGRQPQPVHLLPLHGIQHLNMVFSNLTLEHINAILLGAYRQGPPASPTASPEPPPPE
Description: A fraction composed of HDL3 (1.125 <specific gravity <1.210 g/mL) was obtained from the plasma of a healthy person by density gradient centrifugation. The obtained fraction was dialyzed against phosphate-buffered saline (pH 7.4) and used as an enzyme source and an acceptor for LCAT. Each test drug was prepared by dissolution in dimethyl sulfoxide. [^14C]Cholesterol containing DTNB (Ellman's reagent, final concentration: 0.5 mM), mercaptoethanol (final concentration: 12.5 mM), and 0.6% bovine serum albumin was added to phosphate-buffered saline (pH 7.4) containing 1 mg/mL HDL3, and the test drug was further added thereto at varying concentrations to adjust the whole amount to 80 μL. This mixture was incubated at 37° C. for approximately 16 hours. Then, a mixed solution of hexane and isopropanol (mixing ratio=3:2) was added thereto to stop the reaction. After stirring, the hexane layer was collected, and this layer was evaporated to dryness. A chloroform solution (concentration: 10 mg/mL) was added thereto, and the mixture was spotted onto a thin-layer silica gel plate and developed using a mixed solution of hexane, diethyl ether, and ethyl acetate (mixing ratio=85:15:2). The radioactivity of a portion corresponding to cholesterol oleate was measured using an imaging analyzer BAS-2500 (manufactured by Fujifilm Corp.). A sample non-supplemented with the test drug was similarly treated and assayed. The EC50 value of LCAT activation was calculated according to the expression given below relative to LCAT activity in the sample non-supplemented with the test drug.
[formula] • wherein X represents the logarithm of the concentration of the test drug; • Y represents the responsiveness (LCAT activity) of the test drug; • Top represents the maximum value (maximum plateau); • Bottom represents the minimum value (minimum plateau); and • EC50 represents the 50% effective concentration.

| SMILES | EC50 [nM] |
| --- | --- |
| O=C1Nc2[nH]nc(C3CCN(c4ccc(C(F)(F)F)cn4)CC3)c2[C@@H](C(F)(F)F)[C@@H]1O (racemic) [Example 1, trans-5-Hydroxy-4-(trifluoromethyl)-3-{1-[5-(trifluoromethyl)pyridin-2-yl]piperidin-4-yl}-1,4,5,7-tetrahydro-6H-pyrazolo[3,4-b]pyridin-6-one] | 880 |
| O=C1Nc2[nH]nc(C3CCN(c4ccc(C(F)(F)F)cn4)CC3)c2[C@@H](C(F)(F)F)[C@H]1O (racemic) [Example 2, cis-5-Hydroxy-4-(trifluoromethyl)-3-{1-[5-(trifluoromethyl)pyridin-2-yl]piperidin-4-yl}-1,4,5,7-tetrahydro-6H-pyrazolo[3,4-b]pyridin-6-one] | 40 |
| CC(C)Oc1ccc(N2CCC(c3n[nH]c4c3[C@@H](C(F)(F)F)[C@@H](O)C(=O)N4)CC2)nc1 (racemic) [Example 5, cis-5-Hydroxy-3-[1-(5-isopropoxypyridin-2-yl)piperidin-4-yl]-4-(trifluoromethyl)-1,4,5,7-tetrahydro-6H-pyrazolo[3,4-b]pyridin-6-one] | 160 |
| O=C1Nc2[nH]nc(C3CCN(c4ccc(C(F)(F)F)nn4)CC3)c2[C@@H](C(F)(F)F)[C@@H]1O (racemic) [Example 6, trans-5-Hydroxy-4-(trifluoromethyl)-3-{1-[6-(trifluoromethyl)pyridazin-3-yl]piperidin-4-yl}-1,4,5,7-tetrahydro-6H-pyrazolo[3,4-b]pyridin-6-one] | 2220 |
| O=C1Nc2[nH]nc(C3CCN(c4ccc(C(F)(F)F)nn4)CC3)c2[C@@H](C(F)(F)F)[C@H]1O (racemic) [Example 7, cis-5-Hydroxy-4-(trifluoromethyl)-3-{1-[6-(trifluoromethyl)pyridazin-3-yl]piperidin-4-yl}-1,4,5,7-tetrahydro-6H-pyrazolo[3,4-b]pyridin-6-one] | 110 |
| CC(C)c1nc(N2CCC(c3n[nH]c4c3[C@@H](C(F)(F)F)[C@H](O)C(=O)N4)CC2)cc(C(F)(F)F)n1 (racemic) [Example 8, trans-5-Hydroxy-3-{1-[2-isopropyl-6-(trifluoromethyl)pyrimidin-4-yl]piperidin-4-yl}-4-(trifluoromethyl)-1,4,5,7-tetrahydro-6H-pyrazolo[3,4-b]pyridin-6-one] | 630 |
| CC(C)c1nc(N2CCC(c3n[nH]c4c3[C@@H](C(F)(F)F)[C@@H](O)C(=O)N4)CC2)cc(C(F)(F)F)n1 (racemic) [Example 9, cis-5-Hydroxy-3-{1-[2-isopropyl-6-(trifluoromethyl)pyrimidin-4-yl]piperidin-4-yl}-4-(trifluoromethyl)-1,4,5,7-tetrahydro-6H-pyrazolo[3,4-b]pyridin-6-one] | 27 |
| O=C1Nc2[nH]nc(C3CCN(c4cnc(C(F)(F)F)cn4)CC3)c2[C@@H](C(F)(F)F)[C@@H]1O (racemic) [Example 10, trans-5-Hydroxy-4-(trifluoromethyl)-3-{1-[5-(trifluoromethyl)pyrazin-2-yl]piperidin-4-yl}-1,4,5,7-tetrahydro-6H-pyrazolo[3,4-b]pyridin-6-one] | 340 |
| O=C1Nc2[nH]nc(C3CCN(c4cnc(C(F)(F)F)cn4)CC3)c2[C@@H](C(F)(F)F)[C@H]1O (racemic) [Example 11, cis-5-Hydroxy-4-(trifluoromethyl)-3-{l-[5-(trifluoromethyl)pyrazin-2-yl]piperidin-4-yl}-1,4,5,7-tetrahydro-6H-pyrazolo[3,4-b]pyridin-6-one] | 29 |
| O=C1Nc2[nH]nc(C3CCN(c4cnc(C(F)(F)F)nc4)CC3)c2[C@@H](C(F)(F)F)[C@H]1O (racemic) [Example 12, cis-5-Hydroxy-4-(trifluoromethyl)-3-{1-[2-(trifluoromethyl)pyrimidin-5-yl]piperidin-4-yl}-1,4,5,7-tetrahydro-6H-pyrazolo[3,4-b]pyridin-6-one] | 35 |
| N#Cc1cnc(N2CCC(c3n[nH]c4c3[C@@H](C(F)(F)F)[C@@H](O)C(=O)N4)CC2)cc1C(F)(F)F (racemic) [Example 13, 6-{4-[cis-5-Hydroxy-6-oxo-4-(trifluoromethyl)-4,5,6,7-tetrahydro-1H-pyrazolo[3,4-b]pyridin-3-yl]piperidin-1-yl}-4-(trifluoromethyl)pyridine-3-carbonitrile] | 37 |
| O=C1Nc2[nH]nc(C3CCN(c4ncc(C(F)(F)F)cc4Cl)CC3)c2[C@@H](C(F)(F)F)[C@H]1O (racemic) [Example 14, cis-3-{1-[3-Chloro-5-(trifluoromethyl)pyridin-2-yl]piperidin-4-yl}-5-hydroxy-4-(trifluoromethyl)-1,4,5,7-tetrahydro-6H-pyrazolo[3,4-b]pyridin-6-one] | 380 |
| O=C1Nc2[nH]nc(C3CCN(c4nc(C(F)(F)F)cs4)CC3)c2[C@@H](C(F)(F)F)[C@H]1O (racemic) [Example 15, cis-5-Hydroxy-4-(trifluoromethyl)-3-{1-[4-(trifluoromethyl)-1,3-thiazol-2-yl]piperidin-4-yl}-1,4,5,7-tetrahydro-6H-pyrazolo[3,4-b]pyridin-6-one] | 290 |
| O=C1Nc2[nH]nc(C3CCN(c4cccc(C(F)(F)F)n4)CC3)c2[C@@H](C(F)(F)F)[C@H]1O (racemic) [Example 16, cis-5-Hydroxy-4-(trifluoromethyl)-3-{1-[6-(trifluoromethyl)pyridin-2-yl]piperidin-4-yl}-1,4,5,7-tetrahydro-6H-pyrazolo[3,4-b]pyridin-6-one] | 62 |
| O=C1Nc2[nH]nc(C3CCN(c4cc(C(F)(F)F)ccn4)CC3)c2[C@@H](C(F)(F)F)[C@H]1O (racemic) [Example 17, cis-5-Hydroxy-4-(trifluoromethyl)-3-{1-[4-(trifluoromethyl)pyridin-2-yl]piperidin-4-yl}-1,4,5,7-tetrahydro-6H-pyrazolo[3,4-b]pyridin-6-one] | 31 |
| O=C1Nc2[nH]nc(C3CCN(c4cc(C(=O)N5CCCCC5)c(C(F)(F)F)cn4)CC3)c2[C@@H](C(F)(F)F)[C@H]1O (racemic) [Example 33, cis-5-Hydroxy-3-{1-[4-(piperidin-1-ylcarbonyl)-5-(trifluoromethyl)pyridin-2-yl]piperidin-4-yl}-4-(trifluoromethyl)-1,4,5,7-tetrahydro-6H-pyrazolo[3,4-b]pyridin-6-one] | 57 |
| O=C1Nc2[nH]nc(C3CCN(c4ccc(OC(F)F)cn4)CC3)c2[C@@H](C(F)(F)F)[C@H]1O (racemic) [Example 37, cis-3-{1-[5-(Difluoromethoxy)pyridin-2-yl]piperidin-4-yl}-5-hydroxy-4-(trifluoromethyl)-1,4,5,7-tetrahydro-6H-pyrazolo[3,4-b]pyridin-6-one] | 94 |
| O=C1Nc2[nH]nc(C3CCN(c4ccc(C(F)(F)F)nn4)CC3)c2[C@@H](C(F)(F)F)[C@H]1O (single isomer, unassigned) [Example 19, (+)-cis-5-Hydroxy-4-(trifluoromethyl)-3-{1-[6-(trifluoromethyl)pyridazin-3-yl]piperidin-4-yl}-1,4,5,7-tetrahydro-6H-pyrazolo[3,4-b]pyridin-6-one] | 35 |
| O=C1Nc2[nH]nc(C3CCN(c4ccc(C(F)(F)F)nc4)CC3)c2[C@@H](C(F)(F)F)[C@H]1O (single isomer, unassigned) [Example 23, (+)-cis-5-Hydroxy-4-(trifluoromethyl)-3-{1-[6-(trifluoromethyl)pyridin-3-yl]piperidin-4-yl}-1,4,5,7-tetrahydro-6H-pyrazolo[3,4-b]pyridin-6-one] | 8 |
